The values that follow come from publication PMC5046141, “Discovery of Isoquinolinoquinazolinones as a Novel Class of Potent PPARγ Antagonists with Anti-adipogenic Effects” (Scientific Reports, 2016).

SMILES strings stand for the structures.

In the assay the target is T1, C285G mutant PPARγ2 (Mus musculus, UniProt P37238, C313G).
T1 construct: expressed in transfected cells; host or cells: 3T3-L1, pCS4 CMV vector
T1 sequence (P37238 1-505 C313G): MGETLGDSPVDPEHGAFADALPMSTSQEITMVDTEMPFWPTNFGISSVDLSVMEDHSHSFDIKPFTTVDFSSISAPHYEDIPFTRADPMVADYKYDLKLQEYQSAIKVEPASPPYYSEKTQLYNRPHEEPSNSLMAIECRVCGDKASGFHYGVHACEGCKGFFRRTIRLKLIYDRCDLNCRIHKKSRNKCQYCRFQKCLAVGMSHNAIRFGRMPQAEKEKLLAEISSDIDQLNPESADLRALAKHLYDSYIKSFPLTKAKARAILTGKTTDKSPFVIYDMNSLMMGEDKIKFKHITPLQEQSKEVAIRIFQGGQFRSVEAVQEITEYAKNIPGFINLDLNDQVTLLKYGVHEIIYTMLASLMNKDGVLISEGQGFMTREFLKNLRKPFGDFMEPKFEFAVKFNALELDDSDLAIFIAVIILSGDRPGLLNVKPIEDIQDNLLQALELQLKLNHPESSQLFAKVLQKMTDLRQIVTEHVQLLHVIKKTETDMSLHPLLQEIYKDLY
T1 sequence (P28700 1-467 partner): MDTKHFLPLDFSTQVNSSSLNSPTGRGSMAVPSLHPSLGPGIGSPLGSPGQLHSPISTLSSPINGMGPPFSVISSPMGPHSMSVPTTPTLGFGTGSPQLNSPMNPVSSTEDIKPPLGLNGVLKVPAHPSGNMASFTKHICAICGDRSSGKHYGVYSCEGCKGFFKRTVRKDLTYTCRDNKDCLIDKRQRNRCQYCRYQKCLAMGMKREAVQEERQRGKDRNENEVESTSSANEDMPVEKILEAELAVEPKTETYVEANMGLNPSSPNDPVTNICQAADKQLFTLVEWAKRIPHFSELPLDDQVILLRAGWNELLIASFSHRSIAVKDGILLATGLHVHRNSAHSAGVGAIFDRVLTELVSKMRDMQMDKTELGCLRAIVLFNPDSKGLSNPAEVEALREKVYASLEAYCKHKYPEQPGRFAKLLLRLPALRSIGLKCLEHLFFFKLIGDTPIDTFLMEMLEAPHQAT
Nature of the assay: PPRE-Luc reporter assay with C285G mutant PPARγ2 in 3T3-L1 cells. The class given is cell-based. As to conditions: 5 μM, 12 h. How it is done: To investigate the contribution site on the PPARγ2 to the interaction with 8o, we generated mutant forms of the PPARγ2 (Fig. 5). […] Thus, we tested Cys-to-Gly (Cys285), Arg-to-Gly (Arg288) substitution mutants of PPARγ2. […] The results indicated 8o has interaction with both Cys285 and Arg288, which are in agreement with the docking study.
Figure 5 Mutational study. Residues Cys285 and Arg288 of PPARγ are important for 8o function. The transcriptional activity was determined in 3T3-L1 cells transiently co-transfected with PPRE-driven luciferase reporter gene (PPRE-Luc) and PPARγ2 (WT) or (C285G, R288G) expression vector. After 24 h of transfection, the cells were cultured with 5 μM GW9662 and 5 μM 8o respectively for 12 h. Luciferase activity was measured after 36 h. Error bars mean ± SD of at least three experiments. ^*P < 0.05, ^**P < 0.01.
For plasmids expressing PPARγ2, full length PPARγ2 (mouse, 1518 bp: NCBI Reference Sequence: NP_035276.2) was subcloned into CMV promoter-derived mammalian expression vector (pCS4). […]
3T3-L1 cells were transfected for indicated combinations of expression plasmids along with a luciferase reporter plasmid (PPRE-Luc). […] Luciferase activities were measured using a luciferase reporter assay kit (Promega, Madison, WI, USA). […]

As to `O=C(Nc1ccccc1)c1cc([N+](=O)[O-])ccc1Cl` [GW9662, reference compound], the “effect of Cys285 to Gly substitution on the compound's inhibition of PPARγ2 activity” value is listed as “abolished the inhibitory effect”.
For `COc1cc2cc3n(c(=O)c2cc1OC)CNc1cc(Cl)ccc1-3` [Compound 8o, 3-Chloro-10,11-dimethoxy-5H-isoquinolino[2,3-c]quinazolin-8(6H)-one] the value was “abolished the inhibitory effect”.
